According to ChEMBL document CHEMBL5046240, “Design, synthesis, and evaluation of potent RIPK1 inhibitors with in vivo anti-inflammatory activity” (Eur J Med Chem, 2022):
Activity calls are given as the source filed them. The calls are words filed in the database; no cut-off is given here.

Columns and labels:
[1] = molecular target: Voltage-gated inwardly rectifying potassium channel KCNH2 (Homo sapiens, UniProt Q12809); test: Inhibition of hERG expressed in CHO cells at -80 mV holding potential measured after 4mins by automated patch-clamp assay; assay type: toxicity, cell-based
Mus musculus [2] = test: Antiinflammatory activity in TNFalpha-induced C57BL/6J mouse systemic inflammatory response syndrome model assessed as reduction in IL-6 production in serum at 3 mg/kg, ip pretreated for 15 mins and measured upto 72 hrs after TNFalpha stimulation; assay type: functional, organism-based
CYP2D6 = CYP2D6 (Homo sapiens, UniProt P10635); test: Inhibition of CYP2D6 (unknown origin) using dextromethorphan as cocktail probe substrate at 10 uM preincubated for 20 mins followed by substrate addition and measured after 20 mins by LC-MS/MS analysis relative to control; assay type: ADME; conditions: time 40 min
Mus musculus [3] = test: Anti-necroptosis activity against TNFalpha-induced C57BL/6J mouse systemic inflammatory response syndrome model assessed as reduction in hypothermia at 3 mg/kg, ip pretreated for 15 mins and measured upto 72 hrs after TNFalpha stimulation; assay type: functional, organism-based
[4] = Toxicity in C57BL/6J mouse assessed as effect on behavioral change at 5 to 25 mg/kg, po administered daily for 7 days; assay type: organism-based; conditions: in vivo, 168 h, dose 5-25 mg/kg, time 7 day
[5] = Toxicity in C57BL/6J mouse assessed as effect on spleen morphological changes at 5 to 25 mg/kg, po administered daily for 7 days by H and E staining method; assay type: organism-based; conditions: in vivo, 168 h, dose 5-25 mg/kg, time 7 day
[6] = Toxicity in C57BL/6J mouse assessed as effect on heart morphological changes at 5 to 25 mg/kg, po administered daily for 7 days by Hand E staining method; assay type: organism-based; conditions: in vivo, 168 h, dose 5-25 mg/kg, time 7 day
[7] = molecular target: Receptor-interacting serine/threonine-protein kinase 3 (Homo sapiens) (UniProt Q9Y572); test: Binding affinity to wild-type human partial length RIPK3 (M1 to Q307 residues) expressed in bacterial expression system at 10000 nM measured after 1 hr by Kinomescan method
[8] = Toxicity in C57BL/6J mouse assessed as effect on food intake at 5 to 25 mg/kg, po administered daily for 7 days; assay type: organism-based; conditions: in vivo, 168 h, dose 5-25 mg/kg, time 7 day
[9] = Metabolic stability in human liver microsomes assessed as half life by LC-MS/MS analysis; assay type: ADME
[10] = Fraction unbound clearance in Sprague-Dawley rat; assay type: ADME
[11] = Metabolic stability in rat liver microsomes assessed as half life by LC-MS/MS analysis; assay type: ADME, Microsome
CYP3A4 = CYP3A4 (Homo sapiens, UniProt P08684); test: Inhibition of CYP3A4 (unknown origin) using midazolam as cocktail probe substrate at 10 uM preincubated for 20 mins followed by substrate addition and measured after 20 mins by LC-MS/MS analysis relative to control; assay type: ADME; conditions: time 40 min
[12] = Efflux ratio of permeability across basolateral to apical side over apical to basolateral side in human Caco-2 cells by LC-MS/MS analysis; assay type: ADME, cell-based
HT-29 = test: Anti-necroptic activity in human HT-29 cells assessed as TNFalpha/Z-VAD (TSZ) induced necroptosis by measuring cell viability preincubated for 1 hr followed by TSZ addition ans measured after 24 hrs by celltiter-glo luminescent cell viability assay; assay type: functional, cell-based
[13] = molecular target: T1, Receptor-interacting serine/threonine-protein kinase 1 (Homo sapiens, UniProt Q13546); test: Binding affinity to wild-type human partial length RIPK1 (M1 to K305 residues) expressed in bacterial expression system measured after 1 hr by Kinomescan method
T1 sequence (Q13546 whole entry): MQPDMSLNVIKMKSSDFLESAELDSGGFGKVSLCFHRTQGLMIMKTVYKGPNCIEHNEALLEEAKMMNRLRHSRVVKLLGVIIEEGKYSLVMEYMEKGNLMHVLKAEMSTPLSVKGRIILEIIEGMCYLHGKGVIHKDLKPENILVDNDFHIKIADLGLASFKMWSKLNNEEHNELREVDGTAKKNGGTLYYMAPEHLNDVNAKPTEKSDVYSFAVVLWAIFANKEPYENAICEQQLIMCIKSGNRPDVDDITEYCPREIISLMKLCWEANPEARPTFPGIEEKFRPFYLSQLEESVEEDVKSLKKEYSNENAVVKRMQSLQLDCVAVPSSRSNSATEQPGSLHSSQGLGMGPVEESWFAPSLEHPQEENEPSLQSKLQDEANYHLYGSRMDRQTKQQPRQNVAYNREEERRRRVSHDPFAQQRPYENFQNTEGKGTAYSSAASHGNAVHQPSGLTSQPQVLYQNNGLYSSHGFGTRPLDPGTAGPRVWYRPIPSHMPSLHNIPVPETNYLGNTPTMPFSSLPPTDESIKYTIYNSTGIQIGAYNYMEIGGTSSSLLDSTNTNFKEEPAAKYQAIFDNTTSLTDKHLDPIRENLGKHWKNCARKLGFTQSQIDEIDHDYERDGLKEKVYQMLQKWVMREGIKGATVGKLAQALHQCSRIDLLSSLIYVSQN

[14] = Toxicity in C57BL/6J mouse assessed as effect on body weight at 5 to 25 mg/kg, po administered daily for 7 days; assay type: organism-based; conditions: in vivo, 168 h, dose 5-25 mg/kg, time 7 day
[15] = AUC (0 to 24 hrs) in Sprague-Dawley rat at 2 mg/kg, iv measured upto 24 hrs by LC-MS/MS analysis; assay type: ADME, organism-based; parameters: route intravenous, dose 2 mg/kg, time <=24; conditions: in vivo
[16] = Volume of distribution at steady state in Sprague-Dawley rat at 2 mg/kg, iv measured upto 24 hrs by LC-MS/MS analysis; assay type: ADME, organism-based; conditions: in vivo, read-out: Vdss
[17] = Protein binding in rat plasma assessed as unbound fraction by LC-MS/MS based equilibrium dialysis method; assay type: ADME, cell-free
[18] = Toxicity in C57BL/6J mouse assessed as effect on kidney morphological changes at 5 to 25 mg/kg, po administered daily for 7 days by H and E staining method; assay type: organism-based; conditions: in vivo, 168 h, dose 5-25 mg/kg, time 7 day
[19] = Oral bioavailability in Sprague-Dawley rat at 10 mg/kg measured upto 24 hrs by LC-MS/MS analysis; assay type: ADME, organism-based; conditions: in vivo
[20] = molecular target: T1, Receptor-interacting serine/threonine-protein kinase 1; test: Inhibition of RIPK1 (unknown origin) using MBP and ATP as substrate preincubated for 10 mins followed by substrate addition and measured after 120 mins by ADP-Glo luminescence assay
[21] = Half life in Sprague-Dawley rat at 2 mg/kg, iv measured upto 24 hrs by LC-MS/MS analysis; assay type: ADME, organism-based; conditions: in vivo
[22] = Clearance in Sprague-Dawley rat at 2 mg/kg, iv measured upto 24 hrs by LC-MS/MS analysis; assay type: ADME, organism-based; conditions: in vivo
[23] = Cmax in Sprague-Dawley rat at 2 mg/kg, iv measured upto 24 hrs by LC-MS/MS analysis; assay type: ADME, organism-based; parameters: route intravenous, dose 2 mg/kg, time <=24; conditions: in vivo
L929 = test: Anti-necroptic activity in mouse L929 cells assessed as TNFalpha/Z-VAD (TSZ) induced necroptosis by measuring cell viability preincubated for 1 hr followed by TSZ addition and measured after 24 hrs by celltiter-glo luminescent cell viability assay; assay type: functional, cell-based
[24] = Cmax in Sprague-Dawley rat at 10 mg/kg, po measured upto 24 hrs by LC-MS/MS analysis; assay type: ADME, organism-based; parameters: route oral, dose 10 mg/kg, time <=24; conditions: in vivo
Mus musculus [25] = test: Anti-necroptosis activity against TNFalpha-induced C57BL/6J mouse systemic inflammatory response syndrome model assessed as reduction in lethal shock at 3 mg/kg, ip pretreated for 15 mins and measured upto 72 hrs after TNFalpha stimulation; assay type: functional, organism-based
[26] = AUC (0 to 24 hrs) in Sprague-Dawley rat at 10 mg/kg, po measured upto 24 hrs by LC-MS/MS analysis; assay type: ADME, organism-based; parameters: route oral, dose 10 mg/kg, time <=24; conditions: in vivo

Chain of Voltage-gated inwardly rectifying potassium channel KCNH2 (Q12809 whole entry): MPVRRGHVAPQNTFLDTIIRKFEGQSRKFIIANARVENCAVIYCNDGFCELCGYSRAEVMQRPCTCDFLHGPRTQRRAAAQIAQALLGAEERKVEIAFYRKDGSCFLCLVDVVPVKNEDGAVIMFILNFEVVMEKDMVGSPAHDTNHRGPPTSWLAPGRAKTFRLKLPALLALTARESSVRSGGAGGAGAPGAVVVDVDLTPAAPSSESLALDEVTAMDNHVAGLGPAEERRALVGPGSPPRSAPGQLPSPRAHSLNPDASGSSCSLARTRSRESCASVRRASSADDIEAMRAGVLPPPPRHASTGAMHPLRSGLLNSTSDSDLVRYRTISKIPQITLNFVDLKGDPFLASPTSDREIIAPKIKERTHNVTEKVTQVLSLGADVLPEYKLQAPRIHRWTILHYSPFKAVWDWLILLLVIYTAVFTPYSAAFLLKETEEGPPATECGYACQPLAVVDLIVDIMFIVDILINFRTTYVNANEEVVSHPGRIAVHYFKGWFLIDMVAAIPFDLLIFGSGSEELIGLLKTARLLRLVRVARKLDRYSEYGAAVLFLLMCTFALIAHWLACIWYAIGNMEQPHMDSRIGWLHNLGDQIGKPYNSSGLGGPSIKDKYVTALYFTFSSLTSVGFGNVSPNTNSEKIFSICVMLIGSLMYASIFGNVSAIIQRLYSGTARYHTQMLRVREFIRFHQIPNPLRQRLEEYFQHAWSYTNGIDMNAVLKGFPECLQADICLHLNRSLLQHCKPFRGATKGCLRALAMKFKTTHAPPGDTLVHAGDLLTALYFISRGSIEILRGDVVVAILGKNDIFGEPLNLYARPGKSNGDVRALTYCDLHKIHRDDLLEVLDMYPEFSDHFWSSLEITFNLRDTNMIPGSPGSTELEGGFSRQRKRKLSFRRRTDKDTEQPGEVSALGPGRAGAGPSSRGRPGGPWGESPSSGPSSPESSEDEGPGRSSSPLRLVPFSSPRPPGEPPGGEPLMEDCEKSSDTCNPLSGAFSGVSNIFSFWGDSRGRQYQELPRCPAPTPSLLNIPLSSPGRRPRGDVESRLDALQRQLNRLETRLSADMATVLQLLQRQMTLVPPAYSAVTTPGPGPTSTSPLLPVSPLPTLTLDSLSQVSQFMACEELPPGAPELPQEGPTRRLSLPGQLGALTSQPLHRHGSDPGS
Chain of CYP2D6 (P10635 whole entry): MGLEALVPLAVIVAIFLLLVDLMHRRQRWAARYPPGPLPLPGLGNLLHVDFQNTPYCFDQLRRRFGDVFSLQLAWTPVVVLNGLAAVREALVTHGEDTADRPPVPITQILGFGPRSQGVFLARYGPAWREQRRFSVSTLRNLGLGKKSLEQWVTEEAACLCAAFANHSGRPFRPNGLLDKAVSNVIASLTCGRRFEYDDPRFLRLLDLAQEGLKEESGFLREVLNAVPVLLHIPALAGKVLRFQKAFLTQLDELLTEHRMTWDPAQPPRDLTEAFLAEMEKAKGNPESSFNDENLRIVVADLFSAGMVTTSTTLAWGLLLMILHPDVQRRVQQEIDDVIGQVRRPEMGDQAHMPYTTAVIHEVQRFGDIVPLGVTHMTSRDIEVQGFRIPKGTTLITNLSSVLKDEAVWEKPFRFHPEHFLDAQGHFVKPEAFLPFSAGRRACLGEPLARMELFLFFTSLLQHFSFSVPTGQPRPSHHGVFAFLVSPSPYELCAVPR
Chain of CYP3A4 (P08684 whole entry): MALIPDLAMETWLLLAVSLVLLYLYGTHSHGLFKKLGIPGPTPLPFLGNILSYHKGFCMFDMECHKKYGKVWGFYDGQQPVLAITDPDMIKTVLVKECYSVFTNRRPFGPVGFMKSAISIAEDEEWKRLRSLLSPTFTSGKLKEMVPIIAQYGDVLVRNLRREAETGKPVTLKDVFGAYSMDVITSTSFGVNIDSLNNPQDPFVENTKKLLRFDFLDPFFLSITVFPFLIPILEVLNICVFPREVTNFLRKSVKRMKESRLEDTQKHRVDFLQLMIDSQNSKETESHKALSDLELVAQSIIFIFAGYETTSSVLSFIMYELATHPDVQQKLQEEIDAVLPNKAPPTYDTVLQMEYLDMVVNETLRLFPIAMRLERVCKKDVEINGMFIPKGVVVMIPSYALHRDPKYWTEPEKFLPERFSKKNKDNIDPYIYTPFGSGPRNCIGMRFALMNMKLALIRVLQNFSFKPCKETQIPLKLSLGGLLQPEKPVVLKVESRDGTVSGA
Chain of Receptor-interacting serine/threonine-protein kinase 3 (Homo sapiens) (Q9Y572 whole entry, looked up, the tested form may be a part): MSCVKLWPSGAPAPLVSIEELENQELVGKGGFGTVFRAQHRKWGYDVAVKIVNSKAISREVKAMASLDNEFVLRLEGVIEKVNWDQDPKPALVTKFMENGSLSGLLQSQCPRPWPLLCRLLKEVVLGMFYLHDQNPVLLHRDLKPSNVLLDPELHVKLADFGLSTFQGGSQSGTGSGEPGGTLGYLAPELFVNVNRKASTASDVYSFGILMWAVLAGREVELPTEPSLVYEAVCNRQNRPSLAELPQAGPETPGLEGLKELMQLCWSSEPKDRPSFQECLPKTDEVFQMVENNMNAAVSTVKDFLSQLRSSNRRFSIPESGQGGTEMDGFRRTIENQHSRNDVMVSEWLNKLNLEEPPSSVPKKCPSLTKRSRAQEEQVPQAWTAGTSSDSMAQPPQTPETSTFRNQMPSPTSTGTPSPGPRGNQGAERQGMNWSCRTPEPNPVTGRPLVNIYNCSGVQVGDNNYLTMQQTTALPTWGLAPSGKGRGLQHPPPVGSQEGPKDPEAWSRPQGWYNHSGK

- inhibition at 20 min, 10 µM (CYP2D6): 21%
- Activity [7]: inactive
- half-life [9]: 1.48 h
- CL free [10]: 183 mL/min/kg
- half-life [11]: 0.65 h
- inhibition at 20 min, 10 µM (CYP3A4): 17%
- efflux ratio [12]: 1.1
- Kd [13]: 9.2 nM
- AUC [15]: 1208 ng·h/mL
- Vd [16]: 2.4 L/kg
- fraction unbound [17]: 0.018
- F [19]: 63%
- IC50 [20]: 67 nM
- half-life [21]: 1 h
- clearance [22]: 33 mL/min/kg
- Cmax [23]: 1330 ng/mL
- Cmax [24]: 1240 ng/mL
- AUC [26]: 1208 ng·h/mL
Structure (SMILES): Cc1ncc(-c2ccc3nc(NC(=O)C4CC4)sc3c2)cc1NC(=O)OC1CCOCC1
- IC50 [1]: > 30000 nM
- Activity (Mus musculus [2]): Active
- Activity (Mus musculus [3]): Active
- Activity [4]: Non-Toxic
- Activity [5]: Non-Toxic
- Activity [6]: Non-Toxic
- Activity [8]: Non-Toxic
- EC50 (HT-29): 17 nM
- Activity [14]: Non-Toxic
- Activity [18]: Non-Toxic
- EC50 (L929): 30 nM
- Activity (Mus musculus [25]): Active
